Results as given in publication PMC2119337 (The Journal of Experimental Medicine, 1992).
No end group written: not given here.

Assays:
(PL/J x SJL/J)F1 mice [1] = type: in vivo; conditions: Table 1, observed 30-35 d, three experiments
(PL/J x SJL/J)F1 mice [2] = test: Inhibition of EAE by coimmunization of competitor peptide with Ac1-11; type: in vivo; conditions: Table 2, Ac1-11 25 nmol alone or with competitor 500 nmol
[3] = biological target: T1, A alpha uA beta u (MHC class II molecules) (Mus musculus, UniProt P06344+P14438); conditions: cited from earlier work
T1 sequence (P14438 1-227): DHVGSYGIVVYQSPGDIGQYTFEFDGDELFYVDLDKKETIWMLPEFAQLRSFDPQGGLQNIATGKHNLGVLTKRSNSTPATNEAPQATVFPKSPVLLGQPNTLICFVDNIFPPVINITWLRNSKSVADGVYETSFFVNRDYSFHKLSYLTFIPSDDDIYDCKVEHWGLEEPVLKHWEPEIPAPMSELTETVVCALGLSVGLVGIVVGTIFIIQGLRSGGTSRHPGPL
T1 sequence (P06344 28-263): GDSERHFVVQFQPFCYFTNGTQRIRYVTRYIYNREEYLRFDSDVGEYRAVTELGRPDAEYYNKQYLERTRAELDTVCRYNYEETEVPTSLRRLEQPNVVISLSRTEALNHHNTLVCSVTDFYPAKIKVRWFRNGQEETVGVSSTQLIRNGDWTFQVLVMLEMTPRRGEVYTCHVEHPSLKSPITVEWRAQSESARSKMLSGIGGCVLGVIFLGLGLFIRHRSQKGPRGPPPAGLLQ

Substance: Ac1-11: immunodominant N-terminal myelin basic protein (MBP) peptide, wild type (Ac-MGNHSGKRELS; UniProt P04370 1-11, looked up, fragment)
- Incidence of EAE (mice with disease/total) ((PL/J x SJL/J)F1 mice [1]; 100 nmol peptide in CFA s.c.): 27/31
- Percent incidence of EAE ((PL/J x SJL/J)F1 mice [1]; […]): 87%
- Day of onset ((PL/J x SJL/J)F1 mice [2]): 12.75
- Mean clinical scores ((PL/J x SJL/J)F1 mice [2]; grades 1-5): 3.4
- Binding to AαuAβu [3]: poor binder
